pIC50: −log10 of the molar value. Converted amounts (≈) assume the structure as drawn.
Tests used:
[1] = target: T1, Gastrin/cholecystokinin type B receptor (Homo sapiens, UniProt P32239); assay: Antagonist activity at human CCKBR; type: functional
T1 sequence (P32239 whole entry): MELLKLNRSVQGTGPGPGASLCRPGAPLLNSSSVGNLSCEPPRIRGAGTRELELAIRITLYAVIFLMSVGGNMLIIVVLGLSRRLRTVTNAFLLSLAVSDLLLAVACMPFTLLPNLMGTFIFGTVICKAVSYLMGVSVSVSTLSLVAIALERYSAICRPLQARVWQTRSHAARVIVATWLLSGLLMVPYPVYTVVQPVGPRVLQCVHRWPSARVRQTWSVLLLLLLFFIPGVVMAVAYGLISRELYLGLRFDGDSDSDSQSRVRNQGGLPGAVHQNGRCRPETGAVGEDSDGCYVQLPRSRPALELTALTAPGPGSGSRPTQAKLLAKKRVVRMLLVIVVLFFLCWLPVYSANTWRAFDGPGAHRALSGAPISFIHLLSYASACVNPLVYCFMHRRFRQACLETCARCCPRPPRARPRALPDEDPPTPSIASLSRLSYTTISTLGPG

Mus musculus = assay: Anti-ulcerogenic activity in ethanol-induced gastric ulcer mouse model assessed as reduction in ulcer formation at 350 mg/kg; type: functional; design: scale not given: the % may be the effect or the level left
Rattus norvegicus [2] = assay: Gastric ulcerogenic activity in ethanol-induced rat model assessed as reduction in mucosal damage at 50 mg/kg, po relative to control; type: functional; design: scale not given: the % may be the effect or the level left
Rattus norvegicus [3] = assay: Gastric ulcerogenic activity in ethanol-induced rat model assessed as reduction in gastric lesion at 10 mg/kg, po relative to control; type: functional; design: scale not given: the % may be the effect or the level left
Rattus norvegicus [4] = assay: Gastric ulcerogenic activity in ethanol-induced rat model assessed as reduction in gastric lesion at 5 mg/kg, po relative to control; type: functional; design: scale not given: the % may be the effect or the level left
[5] = Acute toxicity in po dosed mouse assessed as lethal dose; type: organism-based; details: in vivo
[6] = Inhibition of Hydrogen potassium ATPase (unknown origin); design: species or system Homo sapiens
[7] = target: T2, Polyunsaturated fatty acid lipoxygenase ALOX15 (Homo sapiens, UniProt P16050); assay: Inhibition of 15-LOX (unknown origin)
T2 sequence (P16050 whole entry): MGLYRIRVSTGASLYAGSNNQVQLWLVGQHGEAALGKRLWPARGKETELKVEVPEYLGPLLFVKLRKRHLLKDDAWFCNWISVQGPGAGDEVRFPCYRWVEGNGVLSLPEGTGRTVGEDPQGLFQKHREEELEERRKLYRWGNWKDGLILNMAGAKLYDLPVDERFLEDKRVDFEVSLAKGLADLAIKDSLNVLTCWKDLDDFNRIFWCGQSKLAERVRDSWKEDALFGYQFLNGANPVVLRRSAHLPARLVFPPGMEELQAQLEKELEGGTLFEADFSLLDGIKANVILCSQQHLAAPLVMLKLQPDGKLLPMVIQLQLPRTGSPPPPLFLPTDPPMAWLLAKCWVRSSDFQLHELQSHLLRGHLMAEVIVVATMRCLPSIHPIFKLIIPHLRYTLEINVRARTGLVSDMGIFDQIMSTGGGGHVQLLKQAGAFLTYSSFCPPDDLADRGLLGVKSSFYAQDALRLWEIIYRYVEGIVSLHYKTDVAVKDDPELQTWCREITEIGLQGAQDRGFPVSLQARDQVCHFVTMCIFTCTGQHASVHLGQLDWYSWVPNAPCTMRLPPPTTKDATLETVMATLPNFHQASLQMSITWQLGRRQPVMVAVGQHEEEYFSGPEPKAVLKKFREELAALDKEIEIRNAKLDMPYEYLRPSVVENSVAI

Helicobacter pylori [8] = assay: Antibacterial activity against Helicobacter pylori NCTC 11637 assessed as reduction in bacterial growth incubated for 24 hrs by broth micro-dilution method; type: functional
Helicobacter pylori [9] = assay: Antibacterial activity against Helicobacter pylori ATCC 43504 assessed as reduction in bacterial growth incubated for 24 hrs by broth micro-dilution method; type: functional
Rattus norvegicus [10] = assay: Protection against stress-induced Wistar rat model assessed as inhibition of gastric lesion at 500 ug/kg, po measured after 6 hrs relative to control; type: functional; design: scale not given: the % may be the effect or the level left

`CCCc1ccc([C@H]2N[C@@H](C(=O)OC)Cc3c2[nH]c2ccccc32)cc1` gave a pIC50 [1] of 4.50, an Activity (Mus musculus) of 81.2% and an Activity (Rattus norvegicus [2]) of 81.2%.
`CCc1c(O)c(O)c2c(c1O)C(=O)C(O)=C(O)C2=O` showed an Activity (Rattus norvegicus [3]) of 75.5% and an Activity (Rattus norvegicus [4]) of 73.51%.
Molecule `COc1cc(/C=N/NC(=O)Cc2ccccc2Nc2c(Cl)cccc2Cl)cc(OC)c1O` has an LD50 [5] of 168 mg/kg.
`Clc1ccc(-c2cc(-c3ccco3)no2)c(Cl)c1` gave an IC50 [6] of 42.41 µg/mL (≈ 151 µM) and a pIC50 [7] of 5.09.
`C=CCS[S+]([O-])CC=C` (stereo unspecified) [ALLICIN] gave an MIC (Helicobacter pylori [8]) of 4 µg/mL (≈ 24.6 µM) and an MIC (Helicobacter pylori [9]) of 6 µg/mL (≈ 37 µM).
Work on `O=C(CSc1nc2ccccc2[nH]1)n1nc(Nc2ccc(O)cc2)cc1-c1ccccc1` yielded an Activity (Rattus norvegicus [10]) of 83.1%.

From ChEMBL document CHEMBL5550142, “From lab to nature: Recent advancements in the journey of gastroprotective agents from medicinal chemistry to phytotherapy” (Eur J Med Chem, 2024)
